In patent US20250145665A1, “MACROCYCLIC PEPTIDES USEFUL AS MODULATORS OF TNF ALPHA” (Bristol-Myers Squibb Company, priority 2023, published 2025):
Starred links: 1 amine or outer side, 2 acyl side, 3 side chain; linkers in the order of their positions; H or OH if unused. Positions of bridges follow the written chain, without caps; N, C: chain ends. Non-standard residues stand in square brackets, D forms with d. Residues, ends and D or L forms follow the SMILES beside them. ξ: configuration not given here. *: point of attachment. X84 = O=C(Oc1cccc(-c2ccc(C[C@H](N[*:1])C(=O)[*:2])cc2)c1)c1csc(-c2ccncc2)n1; X46 = O=C(Cc1cccc(C(=O)O)c1)Nc1ccc(-c2ccc(C[C@H](N[*:1])C(=O)[*:2])cc2)cc1; X5 = Cn1nc(C(=O)Nc2ccc(-c3ccc(C[C@H](N[*:1])C(=O)[*:2])cc3)cc2)c2ccccc21; X37 = O=C(Nc1ccc(-c2ccc(C[C@H](N[*:1])C(=O)[*:2])cc2)cc1)c1ccc2ccccc2c1; X73 = O=C(O)CCCC(=O)Nc1ccc(-c2ccc(C[C@H](N[*:1])C(=O)[*:2])cc2)cc1; X64 = O=C(O)CCC(=O)Nc1ccc(-c2ccc(C[C@H](N[*:1])C(=O)[*:2])cc2)cc1; Bip(4'-NH) = O=C([C@H](Cc1ccc(-c2ccc(N[*:3])cc2)cc1)N[*:1])[*:2]; Bip(4'-CONHMe) = CNC(=O)c1ccc(-c2ccc(C[C@H](N)C(=O)O)cc2)cc1; Indazole3carbonyl(1-CH2COOH) = O=C(O)Cn1nc(C(=O)*)c2ccccc21; Bip(4'-COOH) = N[C@@H](Cc1ccc(-c2ccc(C(=O)O)cc2)cc1)C(=O)O; Bip(4'-NHAc) = CC(=O)Nc1ccc(-c2ccc(C[C@H](N)C(=O)O)cc2)cc1; X49 = O=C([C@H](Cc1ccc(-c2cccc(N[*:3])c2)cc1)N[*:1])[*:2]; Ala(morpholin-4-yl) = N[C@@H](CN1CCOCC1)C(=O)O; Phe(3-CONH2) = NC(=O)c1cccc(C[C@H](N)C(=O)O)c1; Bip = N[C@@H](Cc1ccc(-c2ccccc2)cc1)C(=O)O; X24 = O=C(O)COc1cc(-c2ccccc2)ccc1C(=O)*; X31 = Cn1c(C(=O)*)cc2cccc(Cl)c21; X32 = O=C(c1sc2cccc(Cl)c2c1Cl)*; Cha = N[C@@H](CC1CCCCC1)C(=O)O; Chg = N[C@H](C(=O)O)C1CCCCC1; Tle = CC(C)(C)[C@H](N)C(=O)O; X50 = O=C(O)COc1ccccc1C(=O)*; ξE = NC(CCC(=O)O)C(=O)O; Sar = CNCC(=O)O

Biological target: TNFα (Homo sapiens, UniProt P01375)
Assay: TNF-Induced HEK-Blue Assay
Type: cell-based
Conditions: not given

Chain of TNFα (P01375 77-233 limits assumed): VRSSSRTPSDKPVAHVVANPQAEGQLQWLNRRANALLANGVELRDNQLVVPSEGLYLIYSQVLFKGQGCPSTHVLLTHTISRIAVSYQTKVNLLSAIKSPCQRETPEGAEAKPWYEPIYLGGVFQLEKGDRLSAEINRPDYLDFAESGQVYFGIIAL

Row | SMILES | IC50 [nM]
1 | CC(C)C[C@@H]1NC(=O)[C@H](CCCNC(=N)N)NC(=O)[C@H](C(C)C)NC(=O)[C@@H]2CCCN2C(=O)[C@H](C(C)C)NC(=O)[C@@H](CCCNC(=N)N)NC(=O)[C@H](CC(=O)O)NC(=O)[C@@H]2CCCN2C(=O)CN(C)C(=O)[C@H](Cc2ccc(-c3ccc(NC(=O)c4nn(CC(=O)O)c5ccccc45)cc3)cc2)NC(=O)[C@H](Cc2ccc(-c3ccccc3)cc2)NC(=O)[C@H](CN2CCOCC2)NC(=O)CSC[C@@H](C(=O)NCC(N)=O)NC1=O [Example 333] ({CH2CO}-[Ala(morpholin-4-yl)][Bip][Bip(4'-NH)](Indazole3carbonyl(1-CH2COOH))[Sar]PD[dR]VPVRLCG-NH2; thioether N-13) | < 50

Same assay, conditions: HEK-Blue-CD40L cells, NF-kB-driven secreted alkaline phosphatase reporter; TNFα 0.5 ng/ml; 18 h; read-out: TNF induced HEK-Blue assay IC50 value

Row | SMILES | IC50 [nM]
2 | CC(=O)Nc1ccc(-c2ccc(C[C@@H]3NC(=O)[C@H](Cc4ccc(-c5ccc(C(=O)O)cc5)cc4)NC(=O)[C@H](CN4CCOCC4)NC(=O)CSC[C@@H](C(=O)NCC(N)=O)NC(=O)[C@H](CC(C)C)NC(=O)[C@H](Cc4cccc(C(N)=O)c4)NC(=O)[C@H](C4CCCCC4)NC(=O)[C@@H]4CCCN4C(=O)[C@H](C(C)C)NC(=O)[C@@H](CCCNC(=N)N)NC(=O)[C@H](CC(=O)O)NC(=O)[C@@H]4CCCN4C(=O)CN(C)C3=O)cc2)cc1 [Example 320] ({CH2CO}-[Ala(morpholin-4-yl)][Bip(4'-COOH)][Bip(4'-NHAc)][Sar]PD[dR]VP[Chg][Phe(3-CONH2)]LCG-NH2; thioether N-13) | 200 to 2000
3 | CC(=O)Nc1ccc(-c2ccc(C[C@@H]3NC(=O)[C@H](Cc4ccc(-c5ccccc5)cc4)NC(=O)[C@H](CC4CCCCC4)NC(=O)CSC[C@@H](C(=O)NC(CCC(=O)O)C(N)=O)NC(=O)[C@H](CC(C)C)NC(=O)[C@H](Cc4ccc(O)cc4)NC(=O)[C@H](C(C)C)NC(=O)[C@@H]4CCCN4C(=O)[C@H](C(C)C)NC(=O)[C@@H](CCCNC(=N)N)NC(=O)[C@H](CC(=O)O)NC(=O)[C@@H]4CCCN4C(=O)CN(C)C3=O)cc2)cc1 (stereo partly drawn) [Example 321] ({CH2CO}-[Cha][Bip][Bip(4'-NHAc)][Sar]PD[dR]VPVYLC[ξE]-NH2; thioether N-13) | 50 to 200
4 | CC[C@H](C)[C@@H]1NC(=O)[C@@H](CCCNC(=N)N)NC(=O)[C@H](CC(=O)O)NC(=O)[C@H](Cc2cnc[nH]2)NC(=O)CN(C)C(=O)[C@H](Cc2ccc(-c3ccc(NC(=O)c4ccc5ccccc5c4)cc3)cc2)NC(=O)[C@H](Cc2ccc(-c3ccccc3)cc2)NC(=O)[C@H](CC2CCCCC2)NC(=O)CSC[C@@H](C(=O)NCC(N)=O)NC(=O)[C@H](CC(C)C)NC(=O)[C@H](Cc2cnc[nH]2)NC(=O)[C@H](C(C)C)NC(=O)[C@@H]2CCCN2C1=O [Example 322] ({CH2CO}-[Cha][Bip][X37][Sar]HD[dR]IPVHLCG-NH2; thioether N-13) | 50 to 200
5 | CC[C@H](C)[C@@H]1NC(=O)[C@@H](CCCNC(=N)N)NC(=O)[C@H](CC(=O)O)NC(=O)[C@H](Cc2cnc[nH]2)NC(=O)CN(C)C(=O)[C@H](Cc2ccc(-c3ccc(NC(=O)CCC(=O)O)cc3)cc2)NC(=O)[C@H](Cc2ccc(-c3ccccc3)cc2)NC(=O)[C@H](CC2CCCCC2)NC(=O)CSC[C@@H](C(=O)NCC(N)=O)NC(=O)[C@H](CC(C)C)NC(=O)[C@H](Cc2cnc[nH]2)NC(=O)[C@H](C(C)C)NC(=O)[C@@H]2CCCN2C1=O [Example 323] ({CH2CO}-[Cha][Bip][X64][Sar]HD[dR]IPVHLCG-NH2; thioether N-13) | 50 to 200
6 | CC[C@H](C)[C@@H]1NC(=O)[C@@H](CCCNC(=N)N)NC(=O)[C@H](CC(=O)O)NC(=O)[C@H](Cc2cnc[nH]2)NC(=O)CN(C)C(=O)[C@H](Cc2ccc(-c3ccc(NC(=O)CCCC(=O)O)cc3)cc2)NC(=O)[C@H](Cc2ccc(-c3ccccc3)cc2)NC(=O)[C@H](CC2CCCCC2)NC(=O)CSC[C@@H](C(=O)NCC(N)=O)NC(=O)[C@H](CC(C)C)NC(=O)[C@H](Cc2cnc[nH]2)NC(=O)[C@H](C(C)C)NC(=O)[C@@H]2CCCN2C1=O [Example 324] ({CH2CO}-[Cha][Bip][X73][Sar]HD[dR]IPVHLCG-NH2; thioether N-13) | 50 to 200
7 | CC[C@H](C)[C@@H]1NC(=O)[C@@H](CCCNC(=N)N)NC(=O)[C@H](CC(=O)O)NC(=O)[C@H](Cc2cnc[nH]2)NC(=O)CN(C)C(=O)[C@H](Cc2ccc(-c3ccc(NC(=O)c4sc5cccc(Cl)c5c4Cl)cc3)cc2)NC(=O)[C@H](Cc2ccc(-c3ccccc3)cc2)NC(=O)[C@H](CC2CCCCC2)NC(=O)CSC[C@@H](C(=O)NCC(N)=O)NC(=O)[C@H](CC(C)C)NC(=O)[C@H](Cc2cnc[nH]2)NC(=O)[C@H](C(C)C)NC(=O)[C@@H]2CCCN2C1=O [Example 325] ({CH2CO}-[Cha][Bip][Bip(4'-NH)](X32)[Sar]HD[dR]IPVHLCG-NH2; thioether N-13) | 200 to 2000
8 | CC[C@H](C)[C@@H]1NC(=O)[C@@H](CCCNC(=N)N)NC(=O)[C@H](CC(=O)O)NC(=O)[C@H](Cc2cnc[nH]2)NC(=O)CN(C)C(=O)[C@H](Cc2ccc(-c3ccc(NC(=O)c4cc5cccc(Cl)c5n4C)cc3)cc2)NC(=O)[C@H](Cc2ccc(-c3ccccc3)cc2)NC(=O)[C@H](CC2CCCCC2)NC(=O)CSC[C@@H](C(=O)NCC(N)=O)NC(=O)[C@H](CC(C)C)NC(=O)[C@H](Cc2cnc[nH]2)NC(=O)[C@H](C(C)C)NC(=O)[C@@H]2CCCN2C1=O [Example 326] ({CH2CO}-[Cha][Bip][Bip(4'-NH)](X31)[Sar]HD[dR]IPVHLCG-NH2; thioether N-13) | 50 to 200
9 | CC(C)C[C@@H]1NC(=O)[C@H](CCCNC(=N)N)NC(=O)[C@H](C(C)C)NC(=O)[C@@H]2CCCN2C(=O)[C@H](C(C)C)NC(=O)[C@@H](CCCNC(=N)N)NC(=O)[C@H](CC(=O)O)NC(=O)[C@@H]2CCCN2C(=O)CN(C)C(=O)[C@H](Cc2ccc(-c3cccc(NC(=O)c4ccccc4OCC(=O)O)c3)cc2)NC(=O)[C@H](Cc2ccc(-c3ccccc3)cc2)NC(=O)[C@H](CN2CCOCC2)NC(=O)CSC[C@@H](C(=O)NCC(N)=O)NC1=O [Example 327] ({CH2CO}-[Ala(morpholin-4-yl)][Bip][X49](X50)[Sar]PD[dR]VPVRLCG-NH2; thioether N-13) | 50 to 200
10 | CC[C@H](C)[C@@H]1NC(=O)[C@@H](CCCNC(=N)N)NC(=O)[C@H](CC(=O)O)NC(=O)[C@H](Cc2cnc[nH]2)NC(=O)CN(C)C(=O)[C@H](Cc2ccc(-c3ccc(NC(=O)Cc4cccc(C(=O)O)c4)cc3)cc2)NC(=O)[C@H](Cc2ccc(-c3ccccc3)cc2)NC(=O)[C@H](CC2CCCCC2)NC(=O)CSC[C@@H](C(=O)NCC(N)=O)NC(=O)[C@H](CC(C)C)NC(=O)[C@H](Cc2cnc[nH]2)NC(=O)[C@H](C(C)C)NC(=O)[C@@H]2CCCN2C1=O [Example 328] ({CH2CO}-[Cha][Bip][X46][Sar]HD[dR]IPVHLCG-NH2; thioether N-13) | 50 to 200
11 | CC[C@H](C)[C@@H]1NC(=O)[C@@H](CCCNC(=N)N)NC(=O)[C@H](CC(=O)O)NC(=O)[C@H](Cc2cnc[nH]2)NC(=O)CN(C)C(=O)[C@H](Cc2ccc(-c3ccc(NC(=O)c4ccccc4OCC(=O)O)cc3)cc2)NC(=O)[C@H](Cc2ccc(-c3ccccc3)cc2)NC(=O)[C@H](CC2CCCCC2)NC(=O)CSC[C@@H](C(=O)NCC(N)=O)NC(=O)[C@H](CC(C)C)NC(=O)[C@H](Cc2cnc[nH]2)NC(=O)[C@H](C(C)C)NC(=O)[C@@H]2CCCN2C1=O [Example 329] ({CH2CO}-[Cha][Bip][Bip(4'-NH)](X50)[Sar]HD[dR]IPVHLCG-NH2; thioether N-13) | < 50
12 | CC[C@H](C)[C@@H]1NC(=O)[C@@H](CCCNC(=N)N)NC(=O)[C@H](CC(=O)O)NC(=O)[C@H](Cc2cnc[nH]2)NC(=O)CN(C)C(=O)[C@H](Cc2ccc(-c3ccc(NC(=O)c4ccc(-c5ccccc5)cc4OCC(=O)O)cc3)cc2)NC(=O)[C@H](Cc2ccc(-c3ccccc3)cc2)NC(=O)[C@H](CC2CCCCC2)NC(=O)CSC[C@@H](C(=O)NCC(N)=O)NC(=O)[C@H](CC(C)C)NC(=O)[C@H](Cc2cnc[nH]2)NC(=O)[C@H](C(C)C)NC(=O)[C@@H]2CCCN2C1=O [Example 330] ({CH2CO}-[Cha][Bip][Bip(4'-NH)](X24)[Sar]HD[dR]IPVHLCG-NH2; thioether N-13) | 50 to 200
13 | CC[C@H](C)[C@@H]1NC(=O)[C@@H](CCCNC(=N)N)NC(=O)[C@H](CC(=O)O)NC(=O)[C@H](Cc2cnc[nH]2)NC(=O)CN(C)C(=O)[C@H](Cc2ccc(-c3ccc(C(=O)NC)cc3)cc2)NC(=O)[C@H](Cc2ccc(-c3ccc(C(=O)O)cc3)cc2)NC(=O)[C@H](CC2CCCCC2)NC(=O)CSC[C@@H](C(=O)NCC(N)=O)NC(=O)[C@H](CC(C)C)NC(=O)[C@H](Cc2cnc[nH]2)NC(=O)[C@H](C(C)C)NC(=O)[C@@H]2CCCN2C1=O [Example 331] ({CH2CO}-[Cha][Bip(4'-COOH)][Bip(4'-CONHMe)][Sar]HD[dR]IPVHLCG-NH2; thioether N-13) | < 50
14 | CC(C)C[C@@H]1NC(=O)[C@H](CCCNC(=N)N)NC(=O)[C@H](C(C)C)NC(=O)[C@@H]2CCCN2C(=O)[C@H](C(C)C)NC(=O)[C@@H](CCCNC(=N)N)NC(=O)[C@H](CC(=O)O)NC(=O)[C@@H]2CCCN2C(=O)CN(C)C(=O)[C@H](Cc2ccc(-c3cccc(OC(=O)c4csc(-c5ccncc5)n4)c3)cc2)NC(=O)[C@H](Cc2ccc(-c3ccccc3)cc2)NC(=O)[C@H](CN2CCOCC2)NC(=O)CSC[C@@H](C(=O)NCC(N)=O)NC1=O [Example 332] ({CH2CO}-[Ala(morpholin-4-yl)][Bip][X84][Sar]PD[dR]VPVRLCG-NH2; thioether N-13) | 200 to 2000
15 | CC[C@H](C)[C@@H]1NC(=O)[C@@H]2CCCN2C(=O)[C@H]([C@@H](C)CC)NC(=O)[C@@H](CCCNC(=N)N)NC(=O)[C@H](CC(=O)O)NC(=O)[C@H](Cc2ccccc2)NC(=O)CN(C)C(=O)[C@H](Cc2ccc(-c3ccc(NC(=O)c4nn(C)c5ccccc45)cc3)cc2)NC(=O)[C@H](Cc2ccc(-c3ccc(C(=O)O)cc3)cc2)NC(=O)[C@H](C(C)(C)C)NC(=O)CSC[C@@H](C(=O)NCC(N)=O)NC(=O)[C@H](CC(C)C)NC(=O)[C@H](Cc2cnc[nH]2)NC1=O [Example 334] ({CH2CO}-[Tle][Bip(4'-COOH)][X5][Sar]FD[dR]IPIHLCG-NH2; thioether N-13) | < 50
